Measured values as given in PubChem BioAssay AID977628 (Broad Institute, 2014).
Inconclusive results are not listed. Calls of active or inactive are those of the source.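 The calls were made as follows: active = compound lowering the normal-ribosome reporter at least twice as much as the humanized-ribosome reporter, growth loss under a set limit; inconclusive = no clear call, values can overlap the other calls; inactive = the rest.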

Tests used:
[1] = system: E. coli mixed WT/h24 culture total growth, OD600, 24 h; assay: E. coli growth inhibition, wild-type GFP versus h24 humanized RFP strain, dose response, h24 mutant RFP vs wild-type GFP, cherry-pick (AID 977628)
[2] = system: E. coli WT GFP strain growth, fluorescence, 24 h; assay: as above

| SMILES | AC50 [1] | AC50 [2] |
| --- | --- | --- |
| Cc1nc2ccc(Br)cc2c(=O)n1Cc1cccs1 | 49.7 µM | > 100 µM (inactive) |
| CCN(CC)S(=O)(=O)c1ccc(O)c(C(=O)OCC(=O)NC23CC4CC(CC(C4)C2)C3)c1 | > 100 µM | > 100 µM (inactive) |
| Cc1ccc(C(=O)Nc2cccc(-c3cn4ccccc4n3)c2)cc1 | 51.5 µM | > 100 µM (inactive) |
| CC(CCc1ccccc1)NC(=O)CNC(=O)COc1ccccc1 (centres undefined) | > 100 µM | > 100 µM (inactive) |
| CCOC(=O)c1c(C)nsc1NCc1ccccc1 | 30.9 µM | > 100 µM (inactive) |
| CC(=O)Nc1ccc(S(=O)(=O)Nc2cccc(-c3nc4cc(C)ccc4o3)c2)cc1 | > 100 µM | > 100 µM (inactive) |
| CC(C)Oc1ccc(C(CC(=O)O)NC(=O)C(Sc2ccccc2)c2ccccc2)cc1 (centres undefined) | > 100 µM | > 100 µM (inactive) |
| C[C@@H]1CN([C@@H](C)CO)C(=O)c2cccc(NC(=O)Nc3ccccc3)c2O[C@@H]1CN(C)S(=O)(=O)c1ccc(Cl)cc1 | 49.6 µM | > 100 µM (inactive) |
| Cc1ccc(NC(=O)c2ccc(CSc3ccccn3)cc2)c(O)c1 | 22.2 µM | > 100 µM (inactive) |
| CN(C)C(=O)C1C2NC(=S)N(c3cccc(Cl)c3)C1(C)Oc1ccc(Cl)cc12 (centres undefined) | > 100 µM | > 100 µM (inactive) |
| CCCc1nc2oc3c(NCCCN(C)C)ncnc3c2c2c1CCCC2 | > 100 µM | > 100 µM (inactive) |
| Cc1cccc(OCCC(=O)Nc2ccc(F)c(F)c2)c1 | > 100 µM | > 100 µM (inactive) |
| Cc1ccc(CNC(=O)c2ccc(Br)o2)cc1 | > 100 µM | > 100 µM (inactive) |
| Cc1onc(-c2ccccc2Cl)c1C(=O)N[C@@H](C)c1ccccc1 | > 100 µM | > 100 µM (inactive) |
| O=C(NCc1nnnn1-c1ccc(Cl)cc1)c1ccc([N+](=O)[O-])o1 | > 100 µM | > 100 µM (inactive) |
| CC(=O)c1c(N2CCOCC2)nc2ccc(Cl)cc2c1-c1ccccc1 | > 100 µM | > 100 µM (inactive) |
| O=C(c1ccc(-c2ccccc2)c(F)c1)C1CCCN(CCCn2cccn2)C1 (centres undefined) | > 100 µM | > 100 µM (inactive) |
| O=C(CSc1nc2ccccc2[nH]1)Nc1cccc(S(=O)(=O)N2CCOCC2)c1 | 47.9 µM | > 100 µM (inactive) |
| Fc1ccc(-n2cc(CNCCc3cccnc3)c(-c3ccccc3Cl)n2)cc1 | 49.2 µM | > 100 µM (inactive) |
| Cc1cc(C(N)=O)nn1-c1c(Cl)cc(Cl)cc1Cl | > 100 µM | > 100 µM (inactive) |
| Cc1ccc(NC(=O)CN(C)S(=O)(=O)c2cccc3cccnc23)cc1F | > 100 µM | > 100 µM (inactive) |

| SMILES | AC50 [1] | AC50 [2] |
| --- | --- | --- |
| Cn1cnc(CCNC(=O)C[C@H]2CC[C@@H]3[C@H](COC[C@H](O)CN3C(=O)Nc3ccc(Cl)cc3)O2)c1 | > 100 µM | > 100 µM (inactive) |
| NC(=O)C1CCN(c2cc(Cl)ccc2[N+](=O)[O-])CC1 | > 100 µM | > 100 µM (inactive) |
| O=C(COn1nnc2ccc(C(F)(F)F)cc21)Nc1c(Cl)cccc1Cl | > 100 µM | > 100 µM (inactive) |
| Cc1onc(-c2ccccc2)c1-c1nnc(-c2ccccc2C(F)(F)F)o1 | > 100 µM | > 100 µM (inactive) |
| CS(=O)(=O)N(CC(=O)N1CCc2ccccc2C1)c1ccc(Br)cc1 | 47 µM | > 100 µM (inactive) |
| CCOc1ccccc1/C=C/c1cc(C(=O)O)c2ccccc2n1 | 37.6 µM | > 100 µM (inactive) |
| COC(=O)c1ccc2nc(-c3ccc(OC)c(OC)c3)c(Cc3ccc(C)cc3)n2c1 | > 100 µM | > 100 µM (inactive) |
| Cc1c(C(=O)O)oc2ccc(S(=O)(=O)NC3CCCCCCC3)cc12 | 41.4 µM | > 100 µM (inactive) |
| CCOc1cccc2sc(NC(=O)CC)nc12 | > 100 µM | > 100 µM (inactive) |
| CCN(CC(=O)Nc1ccccc1OC)CC(=O)Nc1c(Cl)ccc(C)c1Cl | > 100 µM | > 100 µM (inactive) |
| CC1(C(=O)NS(=O)(=O)c2cccc(Cl)c2)CCN1C(=O)C1(c2ccc(Cl)cc2)CCC1 (centres undefined) | > 100 µM | > 100 µM (inactive) |
| CCOC(=O)c1nc(C)sc1-c1ccnn1S(=O)(=O)c1cccc(Cl)c1 | 41.7 µM | > 100 µM (inactive) |
| CCCN(CC1CC1)C(=O)CSc1ncnc2sccc12 | > 100 µM | > 100 µM (inactive) |
| Cc1cccc(C)c1-n1nnnc1C1(C)CCC(=O)N1Cc1cccs1 (centres undefined) | > 100 µM | > 100 µM (inactive) |
| O=C(Cc1cccc(NC(=O)C2CCCN(C(=O)CCc3ccccc3)C2)c1)Nc1cccc(C(=O)N2CCCC2)c1 (centres undefined) | > 100 µM | > 100 µM (inactive) |
| Cc1cc(CNC(=O)COc2ccc(C)c(C)c2)c2ccccc2n1 | 39 µM | > 100 µM (inactive) |
| CCOc1ccc(NC(=O)CCc2nnc3ccc(N4CCC(C)CC4)nn23)cc1 | > 100 µM | > 100 µM (inactive) |
| NS(=O)(=O)c1cccc(NC(=O)CSc2nc3ccccc3n2-c2ccccc2)c1 | 38.1 µM | > 100 µM (inactive) |
| Cc1ccc(OCCn2c(=S)[nH]c3c(N)ncnc32)cc1 | 34.3 µM | > 100 µM (inactive) |
| NC(=O)C1Cc2ccccc2CN1C(=O)c1cc(C2CC2)nn1-c1ccccc1 (centres undefined) | 46.8 µM | > 100 µM (inactive) |
| CCCn1c(=O)c2ccccc2n2c(SCCOc3ccc(OC)cc3)nnc12 | > 100 µM | > 100 µM (inactive) |

| SMILES | AC50 [1] | AC50 [2] |
| --- | --- | --- |
| COc1ccc(OC)c(-c2csc(NC(=O)C3COc4ccccc4O3)n2)c1 (centres undefined) | > 100 µM | > 100 µM (inactive) |
| Cc1ccccc1S(=O)(=O)N1C[C@H]2CON(C)[C@H]2C[C@H]1c1cccc(-c2ccc(C#N)cc2)c1 | > 100 µM | > 100 µM (inactive) |
| Cc1ccc(NC(=O)c2cccs2)cc1[N+](=O)[O-] | > 100 µM | > 100 µM (inactive) |
| O=C(CCc1ccccc1)Nc1sc2c(c1C(=O)O)CCCC2 | 52.3 µM | > 100 µM (inactive) |
| OCCN(Cc1ccccc1)Cc1ccc(Cl)cc1 | > 100 µM | > 100 µM (inactive) |
| Nc1ncncc1-c1ccc(Cl)cc1 | > 100 µM | > 100 µM (inactive) |
| COc1ccc(OC)c(-c2nnc3n2N=C(c2ccc(OC)c(OC4CCOC4)c2)CS3)c1 (centres undefined) | > 100 µM | > 100 µM (inactive) |
| CCOc1ccc2oc(C(=O)NC3CCN(Cc4ccccc4)CC3)c(C)c2c1 | > 100 µM | > 100 µM (inactive) |
| COC(=O)C(Cc1csc2ccc(Cl)cc12)NC(=O)c1ccc(Cl)cc1 (centres undefined) | 31 µM | > 100 µM (inactive) |
| CCN(CC)CC(=O)Nc1ccc(-c2ccc(NC(=O)CN(CC)CC)c(OC)c2)cc1OC | > 100 µM | > 100 µM (inactive) |
| CCn1c(-c2ccccc2Cl)nn(CC(=O)Nc2ccccc2OC)c1=S | > 100 µM | > 100 µM (inactive) |
| Cc1cccc(-c2ccc([C@H]3[C@H](CO)N4CCCCN(S(=O)(=O)c5ccccc5C)C[C@@H]34)cc2)c1 | > 100 µM | > 100 µM (inactive) |
| COC(=O)[C@@H](Cc1c[nH]c2ccccc12)NCc1cccc(B(O)O)c1 | > 100 µM | > 100 µM (inactive) |
| COc1ccc(C)cc1NC(=O)c1nn(C)cc1Br | > 100 µM | > 100 µM (inactive) |
| Cc1ccccc1COc1ccc(-c2nn[nH]n2)cc1 | 39.4 µM | > 100 µM (inactive) |
| O=C(Cn1c(CO)nc2ccccc21)NCCc1ccc(F)cc1 | > 100 µM | > 100 µM (inactive) |
| O=C(Nc1ccc2nc3n(c(=O)c2c1)CCCCC3)c1c(F)ccc([N+](=O)[O-])c1F | > 100 µM | > 100 µM (inactive) |
| Nc1[nH]c(C(=O)c2ccccc2)c(-c2ccc(Br)cc2)c1C(=O)c1cccs1 | > 100 µM | > 100 µM (inactive) |
| O=C(c1cc(S(=O)(=O)N2CCOCC2)ccc1Cl)N1CCc2ccccc2C1 | > 100 µM | – |
| COc1cc(CCN(C(=O)c2cc3ccccc3[nH]2)C(c2ccccn2)c2nc3ccccc3[nH]2)cc(OC)c1 (centres undefined) | > 100 µM | – |
| COc1ccc(OC)c(S(=O)(=O)Nc2cccc3ccc(O)cc23)c1 | > 100 µM | – |

| SMILES | AC50 [1] | AC50 [2] |
| --- | --- | --- |
| COC(=O)c1ccc(OCC(=O)c2ccccc2OC)cc1 | > 100 µM | – |
| C=CCn1c(SCC(=O)Nc2ccc3c(c2)OCCO3)nnc1-c1ccco1 | > 100 µM | – |
| COc1cccc(-c2ccc(NC(=O)C3CCCN(Cc4cnn(C(C)C)c4)C3)cc2)c1 (centres undefined) | > 100 µM | – |
| CC(C)n1nnnc1C1c2ccccc2C(=O)N1CCOc1ccccc1 (centres undefined) | > 100 µM | – |
| Cc1cccc(SCC(=O)Nc2ccccc2[N+](=O)[O-])c1 | > 100 µM | – |
| c1ccc(Nc2ccc3ccccc3c2)cc1 | > 100 µM | – |
| COCC#Cc1ccc2c(c1)O[C@H](CN(C)C(=O)c1ccccc1)[C@@H](C)CN([C@H](C)CO)S2(=O)=O | > 100 µM | – |
| CCOC(=O)c1c(C)[nH]c(C)c1S(=O)(=O)NCCN1CCN(c2ccccc2F)CC1 | > 100 µM | – |
| O=C(Cc1ccc(Br)cc1)Nc1cccc(-c2cn3c(n2)SCC3)c1 | > 100 µM | – |
| NS(=O)(=O)c1cc(C(=O)OCC(=O)Nc2ccccc2[N+](=O)[O-])ccc1Cl | > 100 µM | – |
| O=C(Nc1cccc(S(=O)(=O)c2cccc(NC(=O)C3CC3)c2)c1)C1CC1 | 46.7 µM | – |
| Cc1cccc(C)c1NC(=O)C1(C)CSCC(=O)N1CCOc1ccccc1 (centres undefined) | > 100 µM | – |
| O=C(CC1SC(=O)N(Cc2ccccc2Cl)C1=O)Nc1nccs1 (centres undefined) | > 100 µM | – |
| COc1ccccc1C1CCN(C(=O)c2cccs2)CC1 | > 100 µM | – |
| CN(CCOc1ccccc1)S(=O)(=O)c1ccccc1C#N | > 100 µM | – |
| COc1ccc(OCCC(=O)OCC(=O)NCCC2=CCCCC2)cc1 | > 100 µM | – |
| COc1cccc(C(=O)c2c[nH]c(C(=O)NCc3cccnc3)c2)c1 | > 100 µM | – |
| O=C(C[n+]1ccn(-c2ccccc2)c1)c1ccc([N+](=O)[O-])cc1 | > 100 µM | – |
| O=C(Nc1ccc(Cl)cn1)c1ccc([N+](=O)[O-])o1 | > 100 µM | – |
| COC(=O)c1sc(C(C)(C)C)cc1CS(=O)(=O)c1ccc(Cl)cc1 | > 100 µM | – |
| Cc1ccc(NC(=O)c2ccccc2F)c(NC(=O)c2ccccc2F)c1 | > 100 µM | – |
